Molecular target: T1, Tyrosinase (Agaricus bisporus, UniProt O42713)
T1 sequence (O42713 whole entry): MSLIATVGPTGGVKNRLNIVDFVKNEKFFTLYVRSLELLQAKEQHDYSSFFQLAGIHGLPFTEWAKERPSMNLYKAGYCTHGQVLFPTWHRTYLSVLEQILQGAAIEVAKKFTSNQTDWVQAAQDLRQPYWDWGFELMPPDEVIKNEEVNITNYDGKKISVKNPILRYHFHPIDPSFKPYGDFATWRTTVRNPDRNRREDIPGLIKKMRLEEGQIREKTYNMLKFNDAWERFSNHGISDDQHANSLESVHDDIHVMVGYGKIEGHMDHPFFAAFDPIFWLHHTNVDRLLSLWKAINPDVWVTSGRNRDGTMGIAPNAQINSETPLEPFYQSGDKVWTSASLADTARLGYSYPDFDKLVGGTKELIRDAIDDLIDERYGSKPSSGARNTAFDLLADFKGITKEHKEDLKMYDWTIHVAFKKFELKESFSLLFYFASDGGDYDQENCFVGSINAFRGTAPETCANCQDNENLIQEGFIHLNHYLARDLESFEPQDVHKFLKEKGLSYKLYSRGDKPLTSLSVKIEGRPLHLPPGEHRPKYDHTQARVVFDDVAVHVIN
Test: Inhibition of Agaricus bisporus (mushroom) tyrosinase assessed as decrease in dopachrome formation using L-DOPA as substrate preincubated with enzyme for 10 min prior to substrate addition measured for 10 min by microplate reader analysis

IC50 [µM]	Structure (SMILES)
9.45	CCCCCCCCCCCCCCC(=O)OCC(O)CO (configuration not stated) [2',3'-DIHYDROXY PROPYL PENTADECANOATE]
22.3	CCCCCCCCCCCCCCC(=O)OCCC [PROPYL PENTADECANOATE]

— ChEMBL document CHEMBL3045879, “Isolation of long-chain esters from the rhizome of Polygonatum verticillatum by potent tyrosinase inhibition” (Med Chem Res, 2013)
